Reference: PubChem BioAssay (NCI)
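Cultured in 96-well plates, cells were exposed to test compound for 48 hours across five concentrations. The concentration for 50% growth inhibition is given as GI50. Definition used: TGI = concentration required for complete inhibition of growth.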

What was measured:
Assay in all cases: NCI-60 cell line screen, 48 h
A498 renal = tested on: A498 renal
ACHN renal = tested on: ACHN renal
BT-549 breast = tested on: BT-549 breast
CAKI-1 renal = tested on: CAKI-1 renal
CCRF-CEM leukemia = tested on: CCRF-CEM leukemia
DU-145 prostate = tested on: DU-145 prostate
EKVX NSCLC = tested on: EKVX NSCLC
HL-60(TB) leukemia = tested on: HL-60(TB) leukemia
HOP-62 NSCLC = tested on: HOP-62 NSCLC
HOP-92 NSCLC = tested on: HOP-92 NSCLC
HS 578T breast = tested on: HS 578T breast
MALME-3M melanoma = tested on: MALME-3M melanoma
MDA-MB-231 breast = tested on: MDA-MB-231 breast
MDA-MB-435 = tested on: MDA-MB-435
MOLT-4 leukemia = tested on: MOLT-4 leukemia
NCI-H226 lung = tested on: NCI-H226 lung
NCI-H522 lung = tested on: NCI-H522 lung
NCI/ADR-RES ovarian = tested on: NCI/ADR-RES ovarian
OVCAR-5 ovarian = tested on: OVCAR-5 ovarian
PC-3 prostate = tested on: PC-3 prostate
RPMI-8226 leukemia = tested on: RPMI-8226 leukemia
RXF 393 renal = tested on: RXF 393 renal
SF-295 CNS = tested on: SF-295 CNS
SF-539 CNS = tested on: SF-539 CNS
SK-MEL-2 melanoma = tested on: SK-MEL-2 melanoma
SK-MEL-28 melanoma = tested on: SK-MEL-28 melanoma
SK-MEL-5 melanoma = tested on: SK-MEL-5 melanoma
SK-OV-3 ovarian = tested on: SK-OV-3 ovarian
SN12C renal = tested on: SN12C renal
SNB-75 CNS = tested on: SNB-75 CNS
T-47D breast = tested on: T-47D breast
TK-10 renal = tested on: TK-10 renal
UACC-257 melanoma = tested on: UACC-257 melanoma
UACC-62 melanoma = tested on: UACC-62 melanoma
UO-31 renal = tested on: UO-31 renal
786-0 renal = tested on: 786-0 renal
A549 NSCLC = tested on: A549 NSCLC
HT29 colon = tested on: HT29 colon
IGROV1 ovarian = tested on: IGROV1 ovarian
K-562 leukemia = tested on: K-562 leukemia
KM12 colon = tested on: KM12 colon
NCI-H23 lung = tested on: NCI-H23 lung
OVCAR-4 ovarian = tested on: OVCAR-4 ovarian
SF-268 CNS = tested on: SF-268 CNS
SNB-19 CNS = tested on: SNB-19 CNS
SR leukemia = tested on: SR leukemia
SW-620 colon = tested on: SW-620 colon

`COc1cc(/C=N/n2cnc3oc(-c4ccccc4)cc3c2=N)cc(CN2CCCC2)c1O` gave a GI50 (A498 renal) of 12.9 µM, a TGI (A498 renal) of 40.2 µM and a GI50 (ACHN renal) of 1.61 µM. The TGI (ACHN renal) was 3.18 µM, the GI50 (BT-549 breast) was 23.6 µM and the TGI (BT-549 breast) was 58.4 µM. It also gave a GI50 (CAKI-1 renal) of 1.4 µM, a TGI (CAKI-1 renal) of 2.88 µM and a GI50 (CCRF-CEM leukemia) of 1.96 µM. The TGI (CCRF-CEM leukemia) was 5.75 µM, the GI50 (DU-145 prostate) was 1.83 µM and the TGI (DU-145 prostate) was 3.35 µM. For the same compound, the GI50 (EKVX NSCLC) was 1.83 µM, the TGI (EKVX NSCLC) was 3.77 µM and the GI50 (HL-60(TB) leukemia) was 3.51 µM. For the same compound, the TGI (HL-60(TB) leukemia) was 14.2 µM, the GI50 (HOP-62 NSCLC) was 2.02 µM and the TGI (HOP-62 NSCLC) was 5.04 µM. For the same compound, the GI50 (HOP-92 NSCLC) was 1.92 µM, the TGI (HOP-92 NSCLC) was 13 µM and the GI50 (HS 578T breast) was 13.5 µM. The TGI (HS 578T breast) was 34 µM, the GI50 (MALME-3M melanoma) was 1.9 µM and the TGI (MALME-3M melanoma) was 3.96 µM. For the same compound, the GI50 (MDA-MB-231 breast) was 1.49 µM, the TGI (MDA-MB-231 breast) was 2.9 µM and the GI50 (MDA-MB-435) was 1.69 µM. It also gave a TGI (MDA-MB-435) of 3.19 µM, a GI50 (MOLT-4 leukemia) of 2.18 µM and a TGI (MOLT-4 leukemia) of 6.49 µM. It also gave a GI50 (NCI-H226 lung) of 5.84 µM, a TGI (NCI-H226 lung) of 34.1 µM and a GI50 (NCI-H522 lung) of 2.22 µM. The TGI (NCI-H522 lung) was 5.79 µM, the GI50 (NCI/ADR-RES ovarian) was 1.96 µM and the TGI (NCI/ADR-RES ovarian) was 4.04 µM. The GI50 (OVCAR-5 ovarian) was 1.67 µM, the TGI (OVCAR-5 ovarian) was 3.21 µM and the GI50 (PC-3 prostate) was 1.5 µM. It also gave a TGI (PC-3 prostate) of 3.13 µM, a GI50 (RPMI-8226 leukemia) of 2.08 µM and a TGI (RPMI-8226 leukemia) of 4.82 µM. It also gave a GI50 (RXF 393 renal) of 1.35 µM, a TGI (RXF 393 renal) of 3.43 µM and a GI50 (SF-295 CNS) of 1.89 µM. It also gave a TGI (SF-295 CNS) of 3.9 µM, a GI50 (SF-539 CNS) of 1.75 µM and a TGI (SF-539 CNS) of 3.46 µM. For the same compound, the GI50 (SK-MEL-2 melanoma) was 21.2 µM, the TGI (SK-MEL-2 melanoma) was 47.3 µM and the GI50 (SK-MEL-28 melanoma) was 1.82 µM. For the same compound, the TGI (SK-MEL-28 melanoma) was 3.56 µM, the GI50 (SK-MEL-5 melanoma) was 3.49 µM and the TGI (SK-MEL-5 melanoma) was 15.9 µM. For the same compound, the GI50 (SK-OV-3 ovarian) was 18 µM, the TGI (SK-OV-3 ovarian) was 38.5 µM and the GI50 (SN12C renal) was 1.58 µM. The TGI (SN12C renal) was 3.25 µM, the GI50 (SNB-75 CNS) was 0.856 µM and the TGI (SNB-75 CNS) was 2.26 µM. For the same compound, the GI50 (T-47D breast) was 1.96 µM, the TGI (T-47D breast) was 4.69 µM and the GI50 (TK-10 renal) was 26.4 µM. For the same compound, the TGI (TK-10 renal) was 49.2 µM, the GI50 (UACC-257 melanoma) was 20.5 µM and the TGI (UACC-257 melanoma) was 43.8 µM. For the same compound, the GI50 (UACC-62 melanoma) was 19.6 µM, the TGI (UACC-62 melanoma) was 40.8 µM and the GI50 (UO-31 renal) was 1.42 µM. For the same compound, the TGI (UO-31 renal) was 3.08 µM.
`CCCCCc1ccc(S(=O)(=O)Nc2cccc(-c3csc(NC(=O)CCCCCN4CCN(C)CC4)n3)c2)cc1` gave a GI50 (786-0 renal) of 1.86 µM, a TGI (786-0 renal) of 3.38 µM and a GI50 (A498 renal) of 3.36 µM. The TGI (A498 renal) was 11.9 µM, the GI50 (A549 NSCLC) was 1.94 µM and the TGI (A549 NSCLC) was 4.38 µM. The GI50 (ACHN renal) was 1.86 µM, the TGI (ACHN renal) was 3.56 µM and the GI50 (BT-549 breast) was 2.29 µM. For the same compound, the TGI (BT-549 breast) was 9.55 µM, the GI50 (CCRF-CEM leukemia) was 2.76 µM and the TGI (CCRF-CEM leukemia) was 13.7 µM. For the same compound, the GI50 (DU-145 prostate) was 2.11 µM, the TGI (DU-145 prostate) was 4.32 µM and the GI50 (EKVX NSCLC) was 2.07 µM. It also gave a TGI (EKVX NSCLC) of 5.29 µM, a GI50 (HOP-92 NSCLC) of 1.44 µM and a TGI (HOP-92 NSCLC) of 3.3 µM. For the same compound, the GI50 (HS 578T breast) was 1.92 µM, the TGI (HS 578T breast) was 4.7 µM and the GI50 (HT29 colon) was 1.86 µM. It also gave a TGI (HT29 colon) of 3.67 µM, a GI50 (IGROV1 ovarian) of 2.27 µM and a TGI (IGROV1 ovarian) of 5.29 µM. For the same compound, the GI50 (K-562 leukemia) was 2.42 µM, the TGI (K-562 leukemia) was 17.5 µM and the GI50 (KM12 colon) was 1.86 µM. The TGI (KM12 colon) was 3.49 µM, the GI50 (MDA-MB-231 breast) was 1.85 µM and the TGI (MDA-MB-231 breast) was 3.89 µM. For the same compound, the GI50 (MOLT-4 leukemia) was 2.98 µM, the TGI (MOLT-4 leukemia) was 9.5 µM and the GI50 (NCI-H226 lung) was 2.55 µM. For the same compound, the TGI (NCI-H226 lung) was 7.16 µM, the GI50 (NCI-H23 lung) was 2.46 µM and the TGI (NCI-H23 lung) was 6.52 µM. It also gave a GI50 (NCI/ADR-RES ovarian) of 8.99 µM, a TGI (NCI/ADR-RES ovarian) of 39.4 µM and a GI50 (OVCAR-4 ovarian) of 2.74 µM. The TGI (OVCAR-4 ovarian) was 8.69 µM, the GI50 (OVCAR-5 ovarian) was 2.16 µM and the TGI (OVCAR-5 ovarian) was 5.13 µM. The GI50 (PC-3 prostate) was 2.2 µM, the TGI (PC-3 prostate) was 6.42 µM and the GI50 (RPMI-8226 leukemia) was 1.83 µM. The TGI (RPMI-8226 leukemia) was 4.38 µM, the GI50 (RXF 393 renal) was 1.64 µM and the TGI (RXF 393 renal) was 3.35 µM. The GI50 (SF-268 CNS) was 1.86 µM, the TGI (SF-268 CNS) was 3.93 µM and the GI50 (SF-295 CNS) was 1.93 µM. The TGI (SF-295 CNS) was 3.95 µM, the GI50 (SF-539 CNS) was 1.67 µM and the TGI (SF-539 CNS) was 3.09 µM. The GI50 (SK-MEL-2 melanoma) was 1.76 µM, the TGI (SK-MEL-2 melanoma) was 3.47 µM and the GI50 (SK-MEL-28 melanoma) was 1.84 µM. It also gave a TGI (SK-MEL-28 melanoma) of 3.37 µM, a GI50 (SN12C renal) of 2.74 µM and a TGI (SN12C renal) of 8.65 µM. For the same compound, the GI50 (SNB-19 CNS) was 2.9 µM, the TGI (SNB-19 CNS) was 9.8 µM and the GI50 (SNB-75 CNS) was 1.6 µM. It also gave a TGI (SNB-75 CNS) of 3.88 µM, a GI50 (SR leukemia) of 1.96 µM and a TGI (SR leukemia) of 4.79 µM. The GI50 (SW-620 colon) was 1.73 µM, the TGI (SW-620 colon) was 3.23 µM and the GI50 (T-47D breast) was 1.96 µM. For the same compound, the TGI (T-47D breast) was 4.93 µM, the GI50 (TK-10 renal) was 2.03 µM and the TGI (TK-10 renal) was 4.51 µM. For the same compound, the GI50 (UACC-257 melanoma) was 1.64 µM, the TGI (UACC-257 melanoma) was 3.23 µM and the GI50 (UO-31 renal) was 1.62 µM. It also gave a TGI (UO-31 renal) of 3.23 µM.
